The record followed here is ChEMBL document CHEMBL3352486, “Design, synthesis and biological evaluation of metronidazole-thiazole derivatives as antibacterial inhibitors” (Bioorg Med Chem Lett, 2014).

Data set [1] deals with Escherichia coli. Put plainly: Antibacterial activity against Escherichia coli after 24 hrs by MTT method. In kind it is functional, organism-based.
Data set [2] has as its system Pseudomonas aeruginosa. Put plainly: Antibacterial activity against Pseudomonas aeruginosa after 24 hrs by MTT method. It is filed as functional, organism-based.
In data set [3] the test system is Bacillus thuringiensis. Put plainly: Antibacterial activity against Bacillus thuringiensis after 24 hrs by MTT method. In kind it is functional, organism-based.
The subject of data set [4] is Bacillus subtilis. Put plainly: Antibacterial activity against Bacillus subtilis after 24 hrs by MTT method. In kind it is functional, organism-based.
Data set [5] addresses T1, Beta-ketoacyl-[acyl-carrier-protein] synthase III (Escherichia coli K-12, UniProt P0A6R0).
T1 sequence (P0A6R0 whole entry): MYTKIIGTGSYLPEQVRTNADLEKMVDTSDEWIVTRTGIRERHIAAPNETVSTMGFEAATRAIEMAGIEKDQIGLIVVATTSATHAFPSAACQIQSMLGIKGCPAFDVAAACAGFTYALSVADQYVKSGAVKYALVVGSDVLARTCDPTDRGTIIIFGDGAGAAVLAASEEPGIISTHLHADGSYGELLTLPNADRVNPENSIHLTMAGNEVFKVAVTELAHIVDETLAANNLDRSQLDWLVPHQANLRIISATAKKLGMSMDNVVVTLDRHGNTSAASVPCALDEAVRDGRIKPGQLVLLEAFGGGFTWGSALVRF
Put plainly: Inhibition of Escherichia coli FabH.

Data set [6] is described as follows: Cytotoxicity against human macrophages assessed as drug level causing microscopically detectable alteration in normal cell morphology after 24 hrs by MTT assay. In kind it is cell-based, Macrophage.

SMILES strings stand for the structures. In brackets after ≈: the same amount, converted by molar mass.

As to `Cc1ncc([N+](=O)[O-])n1CCOc1ccc(/C=N/Nc2nc(-c3ccccc3Br)cs2)cc1`, the IC50 was 26.9 µg/mL (≈ 51 µM) in data set [1]; 20.6 µg/mL (≈ 39.1 µM) in data set [2]; 88.4 µg/mL (≈ 168 µM) in data set [3]; 27.6 µg/mL (≈ 52.3 µM) in data set [4]; 4.9 µM in data set [5]. Besides, the CC50 at 24 h in data set [6] was found to be 322 µg/mL.
As to `Cc1ncc([N+](=O)[O-])n1CCOc1ccc(/C=N\NC(N)=S)cc1`, the 50% inhibitory concentration (IC50) was 111 µg/mL (≈ 318 µM) in data set [1], 98.3 µg/mL (≈ 282 µM) in data set [2], 88.4 µg/mL (≈ 254 µM) in data set [3] and 103 µg/mL (≈ 296 µM) in data set [4].
Regarding `Cc1ncc([N+](=O)[O-])n1CCOc1cccc(/C=N\NC(N)=S)c1`, the IC50 in data set [1] amounted to 89.7 µg/mL (≈ 257 µM); in data set [2] it was 85.6 µg/mL (≈ 246 µM); in data set [3], 78.6 µg/mL (≈ 226 µM); in data set [4] it was 96.3 µg/mL (≈ 276 µM).
Regarding `Cc1ncc([N+](=O)[O-])n1CCOc1ccc(/C=N/Nc2nc(-c3ccccc3)cs2)cc1`, the IC50 in data set [1] came out at 38.3 µg/mL (≈ 85.4 µM); in data set [2] it was 38.2 µg/mL (≈ 85.2 µM); in data set [3] it was 15.5 µg/mL (≈ 34.6 µM); in data set [4] it was 13.1 µg/mL (≈ 29.2 µM); in data set [5], 5.2 µM. Also, the CC50 at 24 h in data set [6] came out at 467 µg/mL.
For the compound `COc1ccc(-c2csc(N/N=C/c3ccc(OCCn4c([N+](=O)[O-])cnc4C)cc3)n2)cc1`, the IC50 came out at 50.8 µg/mL (≈ 106 µM) in data set [1]; 6.3 µg/mL (≈ 13.2 µM) in data set [2]; 26.2 µg/mL (≈ 54.8 µM) in data set [3]; 19.4 µg/mL (≈ 40.5 µM) in data set [4]; 6.1 µM in data set [5]. The CC50 at 24 h in data set [6] stood at 268 µg/mL.
Take `Cc1ncc([N+](=O)[O-])n1CCOc1ccc(/C=N/Nc2nc(-c3ccc(Br)cc3)cs2)cc1`: the IC50 in data set [1] was found to be 43.3 µg/mL (≈ 82.1 µM); in data set [2], 85.3 µg/mL (≈ 162 µM); in data set [3], 66.9 µg/mL (≈ 127 µM); in data set [4], 98.8 µg/mL (≈ 187 µM); in data set [5] it was 6.2 µM.
On to `Cc1ncc([N+](=O)[O-])n1CCOc1ccc(/C=N/Nc2nc(-c3ccc(C(F)(F)F)cc3)cs2)cc1`, for which the IC50 in data set [1] was 41.2 µg/mL (≈ 79.8 µM); in data set [2] it was 98 µg/mL (≈ 190 µM); in data set [3], 78.8 µg/mL (≈ 153 µM); in data set [4], 32.8 µg/mL (≈ 63.5 µM); in data set [5], 7.2 µM. Besides, the half-maximal cytotoxic concentration (CC50) at 24 h in data set [6] came out at 218 µg/mL.
Take `Cc1ncc([N+](=O)[O-])n1CCOc1cccc(/C=N/Nc2nc(-c3ccccc3)cs2)c1`: the IC50 in data set [1] stood at 48.6 µg/mL (≈ 108 µM); in data set [2], 21.6 µg/mL (≈ 48.2 µM); in data set [3] it was 53.7 µg/mL (≈ 120 µM); in data set [4], 118 µg/mL (≈ 264 µM); in data set [5] it was 8.6 µM.
With `COc1ccc(-c2csc(N/N=C/c3cccc(OCCn4c([N+](=O)[O-])cnc4C)c3)n2)cc1`, the IC50 in data set [1] came to 28.8 µg/mL (≈ 60.2 µM); in data set [2], 10.8 µg/mL (≈ 22.6 µM); in data set [3] it was 5.9 µg/mL (≈ 12.3 µM); in data set [4], 1.9 µg/mL (≈ 3.97 µM); in data set [5], 9.2 µM. Moreover, the CC50 at 24 h in data set [6] was 238 µg/mL.
For `Cc1ncc([N+](=O)[O-])n1CCOc1cccc(/C=N/Nc2nc(-c3ccc(Br)cc3)cs2)c1`, the IC50 in data set [1] turned out to be 98.3 µg/mL (≈ 186 µM); in data set [2], 83.9 µg/mL (≈ 159 µM); in data set [3], 98 µg/mL (≈ 186 µM); in data set [4], 117 µg/mL (≈ 223 µM); in data set [5], 20.8 µM.
Take `Cc1ncc([N+](=O)[O-])n1CCOc1cccc(/C=N/Nc2nc(-c3ccc(C(F)(F)F)cc3)cs2)c1`: the concentration for half-maximal inhibition (IC50) was determined as 48.8 µg/mL (≈ 94.5 µM) in data set [1]; 3.6 µg/mL (≈ 6.97 µM) in data set [2]; 73 µg/mL (≈ 141 µM) in data set [3]; 3.7 µg/mL (≈ 7.16 µM) in data set [4]; 13.5 µM in data set [5]. In addition, the CC50 at 24 h in data set [6] was found to be 517 µg/mL.
For the compound `Cc1ncc([N+](=O)[O-])n1CCOc1cccc(/C=N/Nc2nc(-c3ccccc3Br)cs2)c1`, the IC50 in data set [1] was 75.2 µg/mL (≈ 143 µM); in data set [2] it was 67.7 µg/mL (≈ 128 µM); in data set [3], 58.7 µg/mL (≈ 111 µM); in data set [4] it was 15.5 µg/mL (≈ 29.4 µM); in data set [5], 36.2 µM.
Regarding `NC[C@H]1O[C@H](O[C@H]2[C@H](O)[C@@H](O[C@H]3O[C@H](CO)[C@@H](O)[C@H](N)[C@H]3O)[C@H](N)C[C@@H]2N)[C@H](O)[C@@H](O)[C@@H]1O` [KANAMYCIN], the IC50 came out at 46.3 µg/mL (≈ 95.6 µM) in data set [1] and 6.8 µM in data set [5].
